# Experimental data reported in PMC3660563, “High-Throughput Screening for GPR119 Modulators Identifies a Novel Compound with Anti-Diabetic Efficacy in db/db Mice” (PLoS ONE, 2013).
# Tests used:
# [1] = biological target: T1, human GPR119 (Homo sapiens, UniProt Q8TDV5); assay: Reporter gene assay (CRE-luciferase) in HEK293-hGPR119 cells; format: cell-based; conditions: for allosteric modulation of OEA potency: compound added to OEA concentration response
# T1 construct: expressed in transfected cells
# T1 sequence (Q8TDV5 1-335): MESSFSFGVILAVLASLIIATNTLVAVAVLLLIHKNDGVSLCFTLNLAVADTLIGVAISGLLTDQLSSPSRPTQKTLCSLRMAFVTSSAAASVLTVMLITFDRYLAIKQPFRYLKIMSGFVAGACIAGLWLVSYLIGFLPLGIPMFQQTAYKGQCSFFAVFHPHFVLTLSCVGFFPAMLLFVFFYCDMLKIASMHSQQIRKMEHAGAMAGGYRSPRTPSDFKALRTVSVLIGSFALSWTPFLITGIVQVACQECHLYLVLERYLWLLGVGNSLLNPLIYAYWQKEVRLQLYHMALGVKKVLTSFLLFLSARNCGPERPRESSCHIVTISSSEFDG
# Protocol: (§1) HEK293 cells stably transfected with a human GPR119 vector and a cAMP response element-driven luciferase reporter plasmid (HEK293-hGPR119 cells) and HEK293 cells transfected only with a cAMP response element-driven luciferase reporter plasmid (control HEK293 cells) were cultured in Dulbecco’s modified Eagle medium (DMEM) (Invitrogen, Carlsbad, CA, USA) supplemented with 10% fetal bovine serum (FBS), 4.5 g/l glucose, 100 units/ml penicillin and 100 µg/ml streptomycin at 37°C in 5% CO2. MIN6 cells were maintained in DMEM containing 15% FBS, 4.5 g/l glucose, 100 units/ml penicillin and 100 µg/ml streptomycin at 37°C in 5% CO2. GLUTag cells were maintained in DMEM containing 10% FBS, 1 g/l glucose, 100 units/ml penicillin and 100 µg/ml streptomycin at 37°C in 5% CO2.
# (§2) HEK293-hGPR119 cells or control HEK293 cells were seeded onto 384-well plates with a density of 16,000 cells per well. At the time of assaying, AR-231453 or test compounds dissolved in DMSO were added. After 42 h of incubation at 37°C and 5% CO2 in a cell culture incubator, cells were lysed and quantified for luciferase activity using the Steady-Glo luciferase assay system (Promega, Madison, WI, USA) according to manufacturer’s protocol. For allosteric activity studies, test compounds were 5-fold serially diluted and added to AR-231453 or OEA concentration response reaction. Luciferase signals were determined with EnVision (PerkinElmer, Boston, MA, USA).
# [2] = tested on: db/db mice; parameters: method as in the literature (reference number not given); conditions: ref the literature (reference number not given); cited from earlier work
# [3] = tested on: db/db mice; assay: Chronic oral treatment of diabetic db/db mice; format: in vivo; conditions: for inhibition of glycemic excursion, oral glucose tolerance test, vs vehicle: glucose 3 g/kg; for food intake and body weight: 6-week once-daily oral treatment
# Protocol: Animal experimentation was conducted in accordance with the regulations adopted by the Animal Care and Use Committee, Shanghai Institute of Materia Medica, Chinese Academy of Sciences (approval number: SIMM-2012-07-WMW-04). Male C57BL/KsJ db/db mice (Model Animal Research Center of Nanjing University, Nanjing, China) were housed in a temperature-controlled room (22±2°C), with a light/dark cycle of 12 h. At 6 weeks of age, mice were randomly assigned to chronic treatments. The experimental groups and respective doses of compounds were as follows: (1) 0.5% w/v sodium carboxyl methyl cellulose (CMC), (2) 10 mg/kg AR-231453, (3) 1 mg/kg sitagliptin (Beijing Huikang Boyuan Chemical Technology Co., Ltd., Beijing, China), (4) 10 mg/kg AR-231453 plus 1 mg/kg sitagliptin, (5) 100 mg/kg MW1219, and (6) 100 mg/kg MW1219 plus 1 mg/kg sitagliptin. Each regimen was administered once daily by oral gavaging for 6 weeks. Body weight and food intake were recorded every other day and fasting glucose levels measured every week. Oral glucose tolerance test was performed in overnight-fasting mice every other week. After six weeks of treatment, HbA1c were quantified, plasma insulin and GLP-1 contents were measured using respective ELISA kit. For oral glucose tolerance test, overnight fasting mice (n = 6/treatment) were given compounds orally at desired doses and after 30 min, an oral glucose bonus (3 g/kg) was delivered. Plasma glucose levels were determined at desired time points over a 2-h period using blood collected from the tail vein. For circulating GLP-1 analysis, compounds were administered orally to fasting animals followed by an oral glucose bolus (3 g/kg) 30 min later. Blood was drawn 2 min thereafter in Eppendorf tubes containing EDTA and a DPP-4 inhibitor. Plasma samples were obtained via centrifugation and assayed for active GLP-1 by the ELISA kit. Blood was collected again after 20 min to determine insulin levels.
# [4] = biological target: T1, human GPR119; assay: cAMP accumulation assay (HTRF) in HEK293-hGPR119 cells; format: cell-based
# Protocol: as §1
# cAMP accumulation was measured using HTRF-cAMP dynamic kit (Cisbio International, Gif sur Yvette Cedex, France) according to manufacturer's instructions. Briefly, HEK293-hGPR119 cells were suspended in assay buffer (DMEM, 1 mM 3-isobutyl-1-methylxanthine) and transferred to 384-well microplates (Greiner Bio-One, Frickenhausen, Germany) at a density of 16,000 cells/well. Plates were incubated for 30 min at 37°C before adding test compounds. After treatment for 30 min at 37°C, the reactions were stopped by addition of lysis buffer containing HTRF reagents. Plates were then incubated for 60 min at room temperature, and time-resolved FRET signals were measured after excitation at 320 nm. Both the emission signal from the europium cryptate-labeled anti-cAMP antibody (620 nm) and the FRET signal resulting from the labeled cAMP-d2 (665 nm) were detected by EnVision (PerkinElmer).
# [5] = tested on: GLUTag cells; assay: GLP-1 release assay in GLUTag cells; format: cell-based, murine; conditions: for GLP-1 release, low glucose medium: 2.8 mM glucose
# Protocol: as §1
# GLUTag cells were plated in 24-well plates on day 1 in low glucose DMEM supplemented with 10% FBS. Culture medium was replaced with DMEM (2.8 mM glucose) supplemented with 10% FBS 24 h before analysis of GLP-1 release. On the day of experiment, cells were washed twice with PBS and incubated with different compounds at desired concentrations in serum-free DMEM with 2.8 mM or 16.8 mM glucose for 1 h at 37°C and 5% CO2. The supernatants were collected by centrifugation for 3 min. GLP-1 in the supernatant was detected by a GLP-1 ELISA kit (Linco Research Laboratory).
# (§3) MIN6 and GLUTag cells were cultured as described above. siRNA targeting murine GPR119 coding sequences (Forward: 5′-[…]-3′, Reverse: 5′-[…]-3′) was purchased from GenePharma company (Shanghai, China). Transfection was performed using siRNA and Lipofectamine 2000 (Invitrogen, Burlington, ON, Canada) as instructed by the manufacturer. After 36 h, knockdown efficiency of siRNA was quantified by real-time RT-PCR, and cells were used for secretion experiments.
# [6] = tested on: control HEK293 cells; assay: Reporter gene assay in control HEK293 cells (no GPR119); format: cell-based
# Protocol: as §1
# as §2, with “For allosteric activity studies, test compounds were 5-fold serially diluted and added to AR-231453 or OEA concentration response reaction.” left out
# [7] = tested on: control HEK293 cells; assay: cAMP accumulation assay in control HEK293 cells; format: cell-based
# Protocol: as §1
# cAMP accumulation was measured using HTRF-cAMP dynamic kit (Cisbio International, Gif sur Yvette Cedex, France) according to manufacturer's instructions. […] Plates were then incubated for 60 min at room temperature, and time-resolved FRET signals were measured after excitation at 320 nm. Both the emission signal from the europium cryptate-labeled anti-cAMP antibody (620 nm) and the FRET signal resulting from the labeled cAMP-d2 (665 nm) were detected by EnVision (PerkinElmer).
# [8] = tested on: MIN6 cells; assay: Insulin secretion assay in MIN6 cells; format: cell-based, mouse; conditions: for glucose-stimulated insulin secretion vs DMSO control: 16.8 mM glucose, 1 h, MW1219 at 15 µM and 50 µM (P<0.05), OEA at 10 µM (P<0.01)
# Protocol: as §1
# Insulin-secreting MIN6 cells were plated in 96-well plates (20,000 cells per well) for 2 days. On the day of experiment, culture medium was aspirated and cells were washed twice with KRBH buffer. Cells were then placed at 37°C for 30 min in KRBH containing 2.8 mM glucose. Test compounds were dissolved in either 2.8 or 16.8 mM glucose medium and added to cells for 1 h. The supernatants were collected by centrifugation at 800×g for insulin measurements. Insulin content in the supernatant was determined using an insulin ELISA kit from Linco Research Laboratory (Billerica, MA, USA).
# as §3
# [9] = reporter gene and cAMP accumulation assays
# [10] = HEK293-hGPR119 cells, 42 h incubation, read-out: EC50, luciferase expression
# [11] = 100 mg/kg MW1219 plus 1 mg/kg sitagliptin, oral, once daily, 6 weeks
# [12] = MW1219 100 mg/kg, sitagliptin 1 mg/kg
# [13] = MW1219 0 μM (Table S3), read-out: EC50 of OEA
# [14] = in presence of MW1219 1 μM, read-out: EC50 of OEA
# [15] = in presence of MW1219 10 μM, read-out: EC50 of OEA
smiles,measurement,setting,value
CC(C)c1noc(C2CCN(c3ncnc(Nc4ccc(S(C)(=O)=O)cc4F)c3[N+](=O)[O-])CC2)n1 [AR-231453],allosteric modulation of OEA potency,[1]; [9],without affecting its potency
same,reduction of food intake,[2],only at very high doses
same,feeding and weight gain,[3]; AR-231453 in combination with sitagliptin,did not induce noticeable effects
same,EC50,"[4]; OEA 0 μM (Table S2), read-out: EC50 of AR-231453",0.00119 ± 0.00016 µM
CCOC(=O)c1ccc2oc3ccc(O)cc3c(=O)c2c1 [MW1219],GLP-1 release after GPR119 siRNA knockdown,"[5]; 20 µM and 50 µM MW1219, siRNA-treated GLUTag cells",indistinguishable from the medium control
same,"GLP-1 release, low glucose medium",[5]; 1 h,Neither MW1219 nor OEA exhibited any effect
same,"GLP-1 released to supernatant, high glucose","[5]; 16.8 mM glucose, 1 h",elevated dose-dependently
same,efficacy relative to forskolin in the reporter gene assay,[1]; HEK293-hGPR119 cells,same level of efficacy as forskolin
same,EC50,[1]; [10],0.96 ± 0.08 µM
same,allosteric modulation of OEA potency,[1]; [9],not PAM for OEA
same,circulating GLP-1 levels,"[3]; 100 mg/kg MW1219, 6 weeks, 2 min after oral glucose 3 g/kg",not elevated
same,insulin response to a glucose bolus,"[3]; 100 mg/kg MW1219, 6 weeks, 20 min after oral glucose 3 g/kg",notably more pronounced than that of controls
same,"inhibition of glycemic excursion, oral glucose tolerance test, vs vehicle","[3]; 100 mg/kg MW1219, after 6 weeks, P<0.05",8.6%
same,reduction of fasting blood glucose vs control,"[3]; 100 mg/kg MW1219, oral, once daily, 6 weeks",16%
same,HbA1c decrease compared with the control,"[3]; 100 mg/kg MW1219, oral, once daily, 6 weeks, P<0.05",0.67%
same,"inhibition of glycemic excursion, oral glucose tolerance test, vs vehicle","[3]; 100 mg/kg MW1219 plus 1 mg/kg sitagliptin, after 6 weeks, P<0.001",18.6%
same,HbA1c change,[3]; [11],no difference
same,fasting blood glucose vs mice that received sitagliptin alone,[3]; [11],significantly lower
same,reduction of fasting blood glucose vs control,[3]; [11],29%
same,food intake and body weight,[3]; [12],neither food intake inhibition nor weight loss
same,"fasting plasma glucose levels and glucose tolerance, pilot dose-response studies","[3]; MW1219 100 mg/kg, data not shown",improved both fasting plasma glucose levels and glucose tolerance
same,activity on luciferase expression in the absence of GPR119,[6],did not show any activity
same,efficacy compared to forskolin,[6]; Figure 2C,10%
same,cAMP increase in control cells,[7],had no influence
same,"efficacy, cAMP accumulation, relative to forskolin","[4]; 50 µM MW1219, HEK293-hGPR119 cells",about 40%
same,insulin secretion after GPR119 siRNA knockdown,"[8]; 15 µM MW1219, GPR119 siRNA-treated MIN6 cells",suppressed by siRNA
same,insulin release under low glucose,[8]; 2.8 mM glucose,no effect
same,glucose-stimulated insulin secretion vs DMSO control,[8],elevated insulin significantly
"CCCCCCCC/C=C\CCCCCCCC(=O)NCCO [OEA, oleoylethanolamide]","GLP-1 release, low glucose medium",[5]; 1 h,Neither MW1219 nor OEA exhibited any effect
same,efficacy on GPR119,"[1]; 1 µM OEA, HTS luciferase assay",15%
same,EC50,"[1]; AR-231453 0 nM (Table S1), read-out: EC50 of OEA",2.81 ± 0.21 µM
same,EC50,[1]; [10],2.78 ± 0.18 µM
same,EC50,[1]; [13],2.89 ± 0.61 µM
same,EC50,[1]; [14],3.09 ± 0.68 µM
same,EC50,[1]; [15],2.56 ± 0.47 µM
same,allosteric modulation of AR-231453 potency,"[1]; reporter gene and cAMP accumulation assays, compound added to AR-231453 concentration response",did not alter the potency of AR-231453
same,EC50,[4]; [13],1.69 ± 0.17 µM
same,EC50,[4]; [14],1.83 ± 0.24 µM
same,EC50,[4]; [15],1.41 ± 0.11 µM
same,glucose-stimulated insulin secretion vs DMSO control,[8],elevated insulin significantly
"N[C@@H](CC(=O)N1CCn2c(nnc2C(F)(F)F)C1)Cc1cc(F)c(F)cc1F [sitagliptin, reference compound]",HbA1c change,"[3]; 1 mg/kg sitagliptin, oral, once daily, 6 weeks",no difference
same,food intake and body weight,[3]; [12],failed to suppress food intake and decrease body weight
same,plasma GLP-1 levels,[3]; sitagliptin 1 mg/kg,raised plasma GLP-1 levels
